Test system: 494315-158-R-J1-PDC complex spheroid growth, percent test/control
Test: Anticancer human tumor 494315-158-R-J1-PDC patient-derived soft tissue sarcoma cell line growth inhibition [Asc]
Details: for IC50: curve of first compound; for viability, T/C: stronger effect = lower value
Outline: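 Complex solid-tumor spheroids incorporating human endothelial and mesenchymal stem cells received single agents or combinations over half-log dilution ranges anchored to clinical Cmax.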

[1] = second compound 0.03 µM, first compound 0.0316 µM
[2] = second compound 0.03 µM, first compound 0.1 µM
[3] = second compound 0.03 µM, first compound 0.316 µM
[4] = second compound 0.03 µM, first compound 1 µM
[5] = second compound 0.03 µM, first compound 3.16 µM
[6] = second compound 0.03 µM, first compound 10 µM
[7] = second compound 0.0949 µM, first compound 0.0316 µM
[8] = second compound 0.0949 µM, first compound 0.1 µM
[9] = second compound 0.0949 µM, first compound 0.316 µM
[10] = second compound 0.0949 µM, first compound 1 µM
[11] = second compound 0.0949 µM, first compound 3.16 µM
[12] = second compound 0.0949 µM, first compound 10 µM
[13] = second compound 0.3 µM, first compound 0.0316 µM
[14] = second compound 0.3 µM, first compound 0.1 µM
[15] = second compound 0.3 µM, first compound 0.316 µM
[16] = second compound 0.3 µM, first compound 1 µM
[17] = second compound 0.3 µM, first compound 3.16 µM
[18] = second compound 0.3 µM, first compound 10 µM
[19] = second compound 0.949 µM, first compound 0.0316 µM
[20] = second compound 0.949 µM, first compound 0.1 µM
[21] = second compound 0.949 µM, first compound 0.316 µM
[22] = second compound 0.949 µM, first compound 1 µM
[23] = second compound 0.949 µM, first compound 3.16 µM
[24] = second compound 0.949 µM, first compound 10 µM
[25] = second compound 3 µM, first compound 0.0316 µM
[26] = second compound 3 µM, first compound 0.1 µM
[27] = second compound 3 µM, first compound 0.316 µM
[28] = second compound 3 µM, first compound 1 µM
[29] = second compound 3 µM, first compound 3.16 µM
[30] = second compound 3 µM, first compound 10 µM
[31] = second compound 0.03 µM, first compound 0.00316 µM
[32] = second compound 0.03 µM, first compound 0.01 µM
[33] = second compound 0.0949 µM, first compound 0.00316 µM
[34] = second compound 0.0949 µM, first compound 0.01 µM
[35] = second compound 0.3 µM, first compound 0.00316 µM
[36] = second compound 0.3 µM, first compound 0.01 µM
[37] = second compound 0.949 µM, first compound 0.00316 µM
[38] = second compound 0.949 µM, first compound 0.01 µM
[39] = second compound 3 µM, first compound 0.00316 µM
[40] = second compound 3 µM, first compound 0.01 µM
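Further: compound exposure lasted seven days after spheroids formed for three days.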

SMILES	IC50 (second compound 0.03 µM) [µM]	IC50 (second compound 0.0949 µM) [µM]	IC50 (second compound 0.3 µM) [µM]	IC50 (second compound 0.949 µM) [µM]	IC50 (second compound 3 µM) [µM]	viability, T/C [1] [%]	viability, T/C [2] [%]	viability, T/C [3] [%]	viability, T/C [4] [%]	viability, T/C [7] [%]	viability, T/C [8] [%]	viability, T/C [9] [%]	viability, T/C [10] [%]	viability, T/C [13] [%]	viability, T/C [14] [%]	viability, T/C [15] [%]	viability, T/C [16] [%]	viability, T/C [19] [%]	viability, T/C [20] [%]	viability, T/C [21] [%]	other results
C=CC(=O)N1CCN(c2nc(=O)n(-c3c(C)ccnc3C(C)C)c3nc(-c4c(O)cccc4F)c(F)cc23)C(C)C1 (stereo not given) + CCN1C(C(=O)NC23CCC(C(=O)O)(CC2)CC3)C(c2cccc(Cl)c2F)C2(C(=O)Nc3cc(Cl)ccc32)C12CCCCC2	> 10	> 10	> 10	> 10	> 10	111	97.2	119	128	90.4	96.8	96.3	110	97.6	119	111	119	85.5	114	106	viability, T/C [5]: 128%; viability, T/C [6]: 104%; viability, T/C [11]: 92.8%; viability, T/C [12]: 99.9%; viability, T/C [17]: 114%; viability, T/C [18]: 117%; viability, T/C [22]: 108%; viability, T/C [23]: 130%; viability, T/C [24]: 110%; viability, T/C [25]: 102%; viability, T/C [26]: 96.9%; viability, T/C [27]: 97.9%; viability, T/C [28]: 113%; viability, T/C [29]: 126%; viability, T/C [30]: 104%
CNC(C)C(=O)NC1CN(S(=O)(=O)c2cccc(S(=O)(=O)N3CCC4CCC(C(=O)NC(c5ccccc5)c5ccccc5)N4C(=O)C(NC(=O)C(C)NC)C3)c2)CCC2CCC(C(=O)NC(c3ccccc3)c3ccccc3)N2C1=O (stereo not given) + CCN1C(C(=O)NC23CCC(C(=O)O)(CC2)CC3)C(c2cccc(Cl)c2F)C2(C(=O)Nc3cc(Cl)ccc32)C12CCCCC2	0.0423	0.0381	0.0411	0.0834	0.0367	54	39.5	43.4	31.9	45.8	42	31.1	26.3	51.9	43.9	36.7	38.5	60.6	49.2	36.7	viability, T/C [31]: 87.4%; viability, T/C [32]: 65.2%; viability, T/C [33]: 66.8%; viability, T/C [34]: 72.6%; viability, T/C [35]: 70.9%; viability, T/C [36]: 63.6%; viability, T/C [37]: 71%; viability, T/C [38]: 62.3%; viability, T/C [22]: 34.4%; viability, T/C [39]: 67.6%; viability, T/C [40]: 61.7%; viability, T/C [25]: 51.2%; viability, T/C [26]: 41.1%; viability, T/C [27]: 28.4%; viability, T/C [28]: 31.4%
COc1c(OCCCN2CCOCC2)ccc2c3n(c(=NC(=O)c4cnc(N)nc4)nc12)CCN3 + CCN1C(C(=O)NC23CCC(C(=O)O)(CC2)CC3)C(c2cccc(Cl)c2F)C2(C(=O)Nc3cc(Cl)ccc32)C12CCCCC2	0.0458	0.039	0.0436	0.0356	0.0462	58.5	30.8	20.5	15.4	54	30.4	22	15.4	49.9	38	22.3	16.7	50.6	30.7	19.2	viability, T/C [31]: 84%; viability, T/C [32]: 80.5%; viability, T/C [33]: 78.7%; viability, T/C [34]: 73.7%; viability, T/C [35]: 91.2%; viability, T/C [36]: 90.4%; viability, T/C [37]: 93.3%; viability, T/C [38]: 81.6%; viability, T/C [22]: 16.4%; viability, T/C [39]: 112%; viability, T/C [40]: 86.5%; viability, T/C [25]: 59.6%; viability, T/C [26]: 32.1%; viability, T/C [27]: 22.6%; viability, T/C [28]: 15.2%

Further lines, with some results ahead:

IC50 (second compound 0.03 µM) [µM]	IC50 (second compound 0.0949 µM) [µM]	IC50 (second compound 0.3 µM) [µM]	IC50 (second compound 0.949 µM) [µM]	IC50 (second compound 3 µM) [µM]	SMILES	viability, T/C [1] [%]	viability, T/C [2] [%]	viability, T/C [3] [%]	viability, T/C [4] [%]	viability, T/C [7] [%]	viability, T/C [8] [%]	viability, T/C [9] [%]	viability, T/C [10] [%]	viability, T/C [13] [%]	viability, T/C [14] [%]	viability, T/C [15] [%]	viability, T/C [16] [%]	viability, T/C [19] [%]	viability, T/C [20] [%]	viability, T/C [21] [%]	other results
> 10	> 10	> 10	> 10	> 10	C#Cc1c(F)ccc2cc(O)cc(-c3ncc4c(N5CC6CCC(C5)N6)nc(OCC56CCCN5CC(F)C6)nc4c3F)c12 (stereo not given) + CCN1C(C(=O)NC23CCC(C(=O)O)(CC2)CC3)C(c2cccc(Cl)c2F)C2(C(=O)Nc3cc(Cl)ccc32)C12CCCCC2	94.3	105	116	94.5	89.9	80.4	98.2	87.4	95.1	102	102	103	85.1	100	107	viability, T/C [5]: 108%; viability, T/C [6]: 94.6%; viability, T/C [11]: 90.5%; viability, T/C [12]: 71.4%; viability, T/C [17]: 108%; viability, T/C [18]: 75.9%; viability, T/C [22]: 83.8%; viability, T/C [23]: 110%; viability, T/C [24]: 86.2%; viability, T/C [25]: 89.5%; viability, T/C [26]: 91.5%; viability, T/C [27]: 89%; viability, T/C [28]: 107%; viability, T/C [29]: 100%; viability, T/C [30]: 85.6%
4.19	3.18	3.8	4.17	4.11	C=C(F)C(=O)N1CCN(c2nc(OCC3CCCN3C)nc3c2CCN(c2cccc4cccc(Cl)c24)C3)CC1CC#N (stereo not given) + CCN1C(C(=O)NC23CCC(C(=O)O)(CC2)CC3)C(c2cccc(Cl)c2F)C2(C(=O)Nc3cc(Cl)ccc32)C12CCCCC2	106	103	105	118	99.9	101	93.2	95.2	110	93	80.3	111	87.1	109	95.9	viability, T/C [5]: 66%; viability, T/C [6]: 0.19%; viability, T/C [11]: 50.2%; viability, T/C [12]: 0.16%; viability, T/C [17]: 59.5%; viability, T/C [18]: 0.19%; viability, T/C [22]: 76.7%; viability, T/C [23]: 70%; viability, T/C [24]: 0.2%; viability, T/C [25]: 96.7%; viability, T/C [26]: 102%; viability, T/C [27]: 100%; viability, T/C [28]: 87.2%; viability, T/C [29]: 65.6%; viability, T/C [30]: 0.27%

From PubChem BioAssay AID1963420 (Molecular Pharmacology Branch, DTP, NCI, 2024)
